Legend:
Assay type in all cases: cell-based
PPAR alpha = target: T1, PPAR alpha (Homo sapiens, UniProt Q07869); assay: Full-length PPAR transcriptional activation assay (PPRE::Luciferase reporter, HEK293 cells), PPAR alpha; details: transfected HEK293 cells, species of receptor not given
T1 construct: expressed in transfected cells; host or cells: HEK293
T1 sequence (Q07869 1-468): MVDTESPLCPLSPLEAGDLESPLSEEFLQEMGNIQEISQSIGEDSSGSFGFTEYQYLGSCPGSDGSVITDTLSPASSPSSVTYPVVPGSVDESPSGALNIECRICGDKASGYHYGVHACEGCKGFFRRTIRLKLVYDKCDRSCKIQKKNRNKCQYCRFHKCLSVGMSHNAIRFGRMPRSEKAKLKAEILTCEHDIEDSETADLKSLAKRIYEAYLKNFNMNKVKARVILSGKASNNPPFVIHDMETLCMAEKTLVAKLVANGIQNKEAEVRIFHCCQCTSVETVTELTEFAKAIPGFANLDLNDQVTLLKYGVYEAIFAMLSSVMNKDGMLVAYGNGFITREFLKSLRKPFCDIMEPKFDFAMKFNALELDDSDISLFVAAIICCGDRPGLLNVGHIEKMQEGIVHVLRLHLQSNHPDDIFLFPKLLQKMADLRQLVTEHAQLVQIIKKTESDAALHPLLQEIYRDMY
Method: (§1) HEK293 cells were seeded the day before transfection into 384-well plates at a cell density of 6,000 cells per well in 40 μl assay medium I (phenol red-free DMEM containing 4% charcoal-dextran stripped FBS, 1% Penicillin-Streptomycin and 1% GlutaMax-1). Then 25 ng of PPRE::Luciferase reporter plasmid, an expression plasmid (25 pg of PPARα, or 40 pg of PPARδ, or 75 pg of PPARγ2), and an appropriate amount of the plasmid pUC19 to bring the total DNA amount to 50 ng was added to 20 μl of phenol-red free DMEM and 150 nL of Fugene 6 and incubated for 30 minutes. The transfection mixtures were then added to the cells and incubated for three hours. 10 μl of test agents in 5% DMSO were then added to the cells and incubated at 37° C. for an additional 18 hours. Luciferase activity was then assayed by adding 25 μl/well of Britelite (Perkin Elmer) according to the manufacturer's protocol and relative light output was measured with an Analyst GT plate reader (Molecular Devices). All experimental points were done in triplicate and the assays were repeated at least 3 times.
(§2) HEK293 cells were seeded the day before transfection in […] dishes at a density of 9×10^6 cells/dish and incubated at 37° C., 10% CO2 for 16-24 hours. Then, […] of PPRE::Luciferase reporter plasmid, an expression plasmid (7.5 ng of PPARα, or 7.5 ng of PPARδ, or 75 ng of PPARγ2), and an appropriate amount of the plasmid pUC19 to bring the total DNA amount to […] were mixed with 54 μl of Fugene 6 in 2 mls of phenol red-free DMEM and incubated for 30 minutes. Transfection mixtures were then incubated with the cells for 18 hours. Cells were then replated into sterile, white TC treated 384-well assay plates at a cell density of 24×10^3 cells/well in 40 μl of assay medium II (phenol-red free DMEM containing 3% charcoal/dextran-stripped FBS, 1% Penicillin-Streptomycin and 1% GlutaMax-1) and incubated at 37° C. for 6 hours. 10 μl of test agents in 5% DMSO were then added to the cells and incubated at 37° C. for an additional 18 hours. Luciferase activity was then assayed by adding 30 μl/well of Britelite (Perkin Elmer) according to the manufacturer's protocol and relative light output was measured with an Analyst GT plate reader (Molecular Devices). All experimental points were done in triplicate and the assays were repeated 3 times.

PPAR gamma = target: T2, PPAR gamma (Homo sapiens, UniProt P37231); assay: Full-length PPAR transcriptional activation assay (PPRE::Luciferase reporter, HEK293 cells), PPAR gamma; details: transfected HEK293 cells (PPARγ2 plasmid), species of receptor not given
T2 construct: expressed in transfected cells; host or cells: HEK293
T2 sequence (P37231 1-505): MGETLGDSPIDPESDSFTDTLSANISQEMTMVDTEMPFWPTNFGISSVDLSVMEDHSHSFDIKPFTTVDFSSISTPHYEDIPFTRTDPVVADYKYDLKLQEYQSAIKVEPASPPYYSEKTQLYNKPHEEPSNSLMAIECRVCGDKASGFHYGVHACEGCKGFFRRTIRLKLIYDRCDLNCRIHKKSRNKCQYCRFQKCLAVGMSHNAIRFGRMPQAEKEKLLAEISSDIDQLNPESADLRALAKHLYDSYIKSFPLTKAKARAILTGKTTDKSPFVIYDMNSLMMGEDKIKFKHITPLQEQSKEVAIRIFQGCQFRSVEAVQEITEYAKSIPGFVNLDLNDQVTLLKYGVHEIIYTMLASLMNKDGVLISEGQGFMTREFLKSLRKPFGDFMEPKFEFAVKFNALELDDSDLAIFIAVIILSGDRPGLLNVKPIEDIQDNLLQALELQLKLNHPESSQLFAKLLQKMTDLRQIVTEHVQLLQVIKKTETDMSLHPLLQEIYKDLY
Method: as §1, §2

PPAR delta = target: T3, PPAR delta (Homo sapiens, UniProt Q03181); assay: Full-length PPAR transcriptional activation assay (PPRE::Luciferase reporter, HEK293 cells), PPAR delta; details: transfected HEK293 cells, species of receptor not given
T3 construct: expressed in transfected cells; host or cells: HEK293
T3 sequence (Q03181 1-441): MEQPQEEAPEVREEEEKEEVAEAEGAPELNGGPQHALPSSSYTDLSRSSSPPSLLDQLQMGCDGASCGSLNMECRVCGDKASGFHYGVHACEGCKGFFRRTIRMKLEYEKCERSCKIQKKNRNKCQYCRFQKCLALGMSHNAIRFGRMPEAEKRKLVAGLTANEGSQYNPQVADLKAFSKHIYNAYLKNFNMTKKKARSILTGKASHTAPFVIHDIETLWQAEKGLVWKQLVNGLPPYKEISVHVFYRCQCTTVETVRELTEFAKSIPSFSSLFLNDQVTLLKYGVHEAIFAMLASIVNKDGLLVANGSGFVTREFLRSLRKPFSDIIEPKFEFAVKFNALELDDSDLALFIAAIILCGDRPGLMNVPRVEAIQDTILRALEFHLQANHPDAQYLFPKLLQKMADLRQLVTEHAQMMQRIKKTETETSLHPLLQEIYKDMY
Method: as §1, §2

| Structure (SMILES) | EC50 (PPAR alpha) [µM] | EC50 (PPAR gamma) [µM] | EC50 (PPAR delta) [µM] |
| --- | --- | --- | --- |
| CCc1cnc(N(CCN2CCc3ccc(CC(=O)O)cc3C2)Cc2ccc(C(F)(F)F)cc2C(F)(F)F)nc1 [Example 4, (2-{2-[(2,4-Bis-trifluoromethyl-benzyl)-(5-ethyl-pyrimidin-2-yl)-amino]-ethyl}-1,2,3,4-tetrahydro-isoquinolin-7-yl)-acetic acid] | > 1 | ≤ 1 | ≤ 1 |
| CCc1cnc(N(CCCN2CCc3ccc(CC(=O)O)cc3C2)c2ccc(C(F)(F)F)cc2)nc1 [Example 7, (2-[3-[(5-Ethyl-pyrimidin-2-yl)-(4-trifluoromethyl-phenyl)-amino]-propyl]-1,2,3,4-tetrahydroisoquinolin-7-yl)-acetic acid] | > 1 | > 1 | > 1 |
| CCc1cnc(N(CCCC2CCc3ccc(CC(=O)O)cc3O2)Cc2ccc(C(F)(F)F)cc2)nc1 (stereo not drawn) [Example 10, (2-{3-[(5-Ethyl-pyrimidin-2-yl)-(4-trifluoromethyl-benzyl)-amino]-propyl}-chroman-7-yl)-acetic acid] | > 1 | ≤ 1 | ≤ 1 |
| CCc1cnc(N(CCCN2CCc3ccc(CC(=O)O)cc3C2)CCc2ccc(C(F)(F)F)cc2)nc1 [Example 9, [2-(3-{(5-Ethyl-pyrimidin-2-yl)-[2-(4-trifluoromethyl-phenyl)-ethyl]-amino}-propyl)-1,2,3,4-tetrahydro-isoquinolin-7-yl]-acetic acid] | > 1 | > 1 | ≤ 1 |
| CCc1cnc(N(CCCCN2CCc3ccc(CC(=O)O)cc3C2)c2ccc(OC(F)(F)F)cc2)nc1 [Example 5, (2-{4-[(5-Ethyl-pyrimidin-2-yl)-(4-trifluoromethoxy-phenyl)-amino]-butyl}-1,2,3,4-tetrahydro-isoquinolin-7-yl)-acetic acid] | > 1 | > 1 | > 1 |
| CCc1cnc(N(CCCC2CCc3ccc(CC(=O)O)cc3O2)CCc2ccc(OC(F)(F)F)cc2)nc1 (stereo not drawn) [Example 14, 2-(2-(3-((5-Ethylpyrimidin-2-yl)(4-(trifluoromethoxy)phenethyl)amino)propyl)chroman-7-yl)acetic acid] | > 1 | ≤ 1 | ≤ 1 |

Continued, values first:

| EC50 (PPAR alpha) [µM] | EC50 (PPAR gamma) [µM] | EC50 (PPAR delta) [µM] | Structure (SMILES) |
| --- | --- | --- | --- |
| ≤ 1 | ≤ 1 | ≤ 1 | CCc1cnc(N(CCCC2Oc3cc(CC(=O)O)ccc3CC2C)Cc2ccc(OC(F)(F)F)cc2)nc1 (single isomer, unassigned) [Example 18B] |
| > 1 | ≤ 1 | ≤ 1 | CCc1cnc(N(CCCC2Oc3cccc(CC(=O)O)c3CC2C)Cc2ccc(OC(F)(F)F)cc2)nc1 (single isomer, unassigned) [Example 19A, 2-(2-(3-((5-ethylpyrimidin-2-yl)(4-(trifluoromethoxy)benzyl)amino)propyl)-3-methylchroman-5-yl)acetic acid] |

— patent US20070219193A1, “ALKYLAMINE-SUBSTITUTED BICYCLIC ARYL COMPOUNDS USEFUL AS MODULATORS OF PPAR” (KALYPSYS, INC, priority 2006, published 2007)
